Data published in US20060052368A1 (priority 2002, published 2006).

Target: α7 nAChR subtype (Rattus norvegicus, UniProt Q05941)
Type: binding
Conditions: read-out: KD of radioligand from saturation curves

Chain of α7 nAChR subtype (Q05941 23-502 limits assumed): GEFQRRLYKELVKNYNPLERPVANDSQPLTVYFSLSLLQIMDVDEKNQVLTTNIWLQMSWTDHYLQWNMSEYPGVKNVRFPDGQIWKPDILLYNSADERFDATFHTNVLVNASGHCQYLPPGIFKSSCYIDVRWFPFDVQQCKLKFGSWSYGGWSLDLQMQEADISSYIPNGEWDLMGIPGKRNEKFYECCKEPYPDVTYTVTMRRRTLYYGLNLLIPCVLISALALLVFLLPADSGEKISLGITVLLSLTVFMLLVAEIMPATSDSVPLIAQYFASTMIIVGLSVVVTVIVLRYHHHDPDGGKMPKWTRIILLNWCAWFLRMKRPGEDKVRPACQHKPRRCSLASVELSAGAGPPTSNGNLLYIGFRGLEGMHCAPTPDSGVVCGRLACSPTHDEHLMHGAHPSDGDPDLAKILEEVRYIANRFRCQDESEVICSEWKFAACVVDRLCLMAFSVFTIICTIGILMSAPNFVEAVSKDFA

Substance: ^125I-α-Bungarotoxin [^125I-α-BTX]
- Kd: 1.67 nM
